Test systems include LOX IMVI melanoma; HCT-116 colon; CCRF-CEM leukemia; BT-549 breast; OVCAR-5 ovarian; HOP-92 NSCLC; RXF 393 renal; 786-0 renal; MOLT-4 leukemia; KM12 colon.
Common to all, as to assay: inhibition of tumour cell growth, NCI panel, 48 h

Values joined by “and” are separate entries in the source; they are usually repeats but may differ in a detail not shown here. Equal entries are not always repeated.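 The compound was tested at five concentrations on cells cultured in 96-well plates, with a 48-hour exposure period. GI50 is the concentration that inhibits growth by half. TGI: concentration producing complete growth inhibition.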

Consider `COc1ccc(-c2c(C#N)c(N)nc(N3CCOCC3)c2C#N)cc1`, for which the GI50 in the assay on LOX IMVI melanoma is 14.4 µM; in the assay with HCT-116 colon it was 17.7 µM; in the assay on CCRF-CEM leukemia, 17.9 µM; in the assay with BT-549 breast, 20.9 µM; with OVCAR-5 ovarian, 13.9 µM; with HOP-92 NSCLC, 14.3 µM. Moreover, the GI50 in the assay on RXF 393 renal is 16.9 µM; in the assay on 786-0 renal, 20.7 µM; in the assay with MOLT-4 leukemia it was 27.7 µM; in the assay with KM12 colon, 21.7 µM. For the same compound, the TGI in the assay with LOX IMVI melanoma was 36.9 µM; in the assay on HCT-116 colon, 65.2 µM; in the assay on CCRF-CEM leukemia it was more than 100 µM; in the assay with BT-549 breast, more than 100 µM; in the assay with OVCAR-5 ovarian it was 59.9 µM; in the assay with HOP-92 NSCLC it was 87.7 µM. Moreover, the TGI in the assay with RXF 393 renal is 47.2 µM; with 786-0 renal it was 76.6 µM; with MOLT-4 leukemia, more than 100 µM; with KM12 colon, 87.4 µM.

`CCCCCCNCCCNc1c2cc(OC)ccc2nc2cccc([N+](=O)[O-])c12`: the GI50 in the assay with LOX IMVI melanoma is 0.272 µM; with HCT-116 colon, 0.0384 µM; in the assay on CCRF-CEM leukemia, 0.118 µM; with BT-549 breast, 1.04 µM; in the assay with OVCAR-5 ovarian it was 0.19 µM; with HOP-92 NSCLC, 0.239 µM. Further, the GI50 was 0.205 µM with 786-0 renal, 0.0514 µM with MOLT-4 leukemia and 0.16 µM with KM12 colon. Also, the TGI with LOX IMVI melanoma is 0.542 µM and 0.974 µM; in the assay on HCT-116 colon it was 0.155 µM and 1.01 µM; with CCRF-CEM leukemia, 0.289 µM and 0.538 µM; with BT-549 breast, 2.3 µM and 2.27 µM; in the assay on OVCAR-5 ovarian, 0.383 µM and 0.794 µM; in the assay with HOP-92 NSCLC it was 0.534 µM and 0.655 µM. The TGI is 0.111 µM in the assay on RXF 393 renal; 0.368 µM and 0.724 µM in the assay with 786-0 renal; 0.508 µM and 0.472 µM with KM12 colon.

Turning to `COc1cc(OCc2cccc(-c3ccccc3)c2C)cc(OC)c1CN1CCCCC1C(=O)NCCOCCOCCN` (stereo not drawn), the GI50 with LOX IMVI melanoma was 1.7 µM; in the assay on HCT-116 colon, 2.04 µM; with CCRF-CEM leukemia, 2.68 µM; in the assay on BT-549 breast it was 11.5 µM; in the assay on OVCAR-5 ovarian, 3.73 µM; in the assay with HOP-92 NSCLC, 1.57 µM. Besides, the GI50 in the assay on RXF 393 renal was 3.26 µM; with 786-0 renal it was 1.83 µM; in the assay with MOLT-4 leukemia it was 2.08 µM; with KM12 colon, 3.2 µM. Besides, the TGI in the assay with LOX IMVI melanoma worked out at 3.21 µM; in the assay on HCT-116 colon, 4.64 µM; in the assay on CCRF-CEM leukemia, 8.9 µM; with BT-549 breast, 24.7 µM; with OVCAR-5 ovarian, 14.9 µM; in the assay with HOP-92 NSCLC it was 5.45 µM. Moreover, the TGI in the assay with RXF 393 renal came out at 11.4 µM; in the assay on 786-0 renal, 3.53 µM; in the assay on MOLT-4 leukemia it was 5.79 µM; in the assay on KM12 colon, 11.4 µM.

As for `COc1cc(F)ccc1-c1cc(Nc2cc(CS(C)(=N)=O)ccn2)ncc1F` (stereo not drawn), the GI50 with LOX IMVI melanoma is 0.0307 µM; with HCT-116 colon it was 0.0293 µM; in the assay on CCRF-CEM leukemia, 0.0344 µM; in the assay on BT-549 breast, 0.0739 µM; with OVCAR-5 ovarian, 0.0488 µM; with HOP-92 NSCLC, 0.0214 µM. The GI50 is 0.0221 µM in the assay on RXF 393 renal, 0.0446 µM with 786-0 renal, 0.111 µM in the assay on MOLT-4 leukemia and 0.0479 µM with KM12 colon. The TGI with LOX IMVI melanoma was more than 100 µM; in the assay with HCT-116 colon, more than 100 µM; in the assay on CCRF-CEM leukemia it was more than 100 µM; in the assay on BT-549 breast it was 2.06 µM; in the assay on OVCAR-5 ovarian it was more than 100 µM; in the assay on HOP-92 NSCLC it was 0.314 µM. The TGI was 0.0536 µM in the assay with RXF 393 renal, more than 47 µM with 786-0 renal, 0.985 µM in the assay on MOLT-4 leukemia and 15.6 µM in the assay with KM12 colon.

Consider `O=C(c1ccc2ccccc2c1)c1nc2cc(F)ccc2[n+]([O-])c1C(F)(F)F`, for which the GI50 in the assay on LOX IMVI melanoma is 13.8 µM; in the assay on HCT-116 colon, 18.4 µM; in the assay with CCRF-CEM leukemia, 22.5 µM; in the assay on BT-549 breast, 17.5 µM; in the assay on OVCAR-5 ovarian, 23.1 µM; with HOP-92 NSCLC, 19.5 µM. Besides, the GI50 in the assay on RXF 393 renal is 14.6 µM; in the assay on 786-0 renal it was 31.6 µM; in the assay with MOLT-4 leukemia, 22.9 µM; with KM12 colon, 19 µM. In addition, the TGI was found to be 26.9 µM with LOX IMVI melanoma; 33.1 µM in the assay on HCT-116 colon; 66.3 µM in the assay on CCRF-CEM leukemia; 33 µM with BT-549 breast; 48.9 µM with OVCAR-5 ovarian; 36.5 µM with HOP-92 NSCLC. Further, the TGI with RXF 393 renal was 30.8 µM; in the assay on 786-0 renal it was more than 100 µM; in the assay with MOLT-4 leukemia, 53.8 µM; with KM12 colon, 39.4 µM.

Turning to `C=CC(C)(C)n1cc(C2=C(O)C(=O)C(c3cn(C(C)(C)C=C)c4ccccc34)=C(O)C2=O)c2ccccc21`, the TGI was 11.2 µM in the assay on LOX IMVI melanoma; more than 33.9 µM in the assay with HCT-116 colon; more than 100 µM in the assay on CCRF-CEM leukemia; 3.63 µM in the assay with BT-549 breast; 4.45 µM in the assay on OVCAR-5 ovarian; 18.9 µM in the assay on HOP-92 NSCLC. In addition, the TGI in the assay on RXF 393 renal is 3.87 µM; in the assay on 786-0 renal it was more than 34.8 µM; with MOLT-4 leukemia it was more than 45.8 µM; in the assay on KM12 colon, 13.5 µM.

With `COc1ccc2c(c1)C(=O)/C(=C/c1cccc(OCC(=O)Nc3nc(C)c(C)s3)c1)O2`, the GI50 in the assay with LOX IMVI melanoma was less than 0.0127 µM; in the assay with HCT-116 colon, 0.17 µM; in the assay with CCRF-CEM leukemia, 0.0168 µM; in the assay on BT-549 breast it was 2.37 µM; in the assay with OVCAR-5 ovarian, 0.205 µM; in the assay on HOP-92 NSCLC, 0.0186 µM. The GI50 in the assay on RXF 393 renal is 0.0214 µM; in the assay on 786-0 renal, 0.0238 µM; in the assay on MOLT-4 leukemia, 0.155 µM; in the assay on KM12 colon, 0.075 µM. For the same compound, the TGI with LOX IMVI melanoma was less than 0.0178 µM; in the assay with HCT-116 colon, 0.564 µM; in the assay on CCRF-CEM leukemia, 0.0337 µM; with BT-549 breast it was 7.63 µM; with OVCAR-5 ovarian it was 1.14 µM; in the assay with HOP-92 NSCLC, 0.0562 µM. Further, the TGI worked out at 0.0418 µM with RXF 393 renal, 0.0545 µM in the assay on 786-0 renal, 0.369 µM in the assay on MOLT-4 leukemia and 2.62 µM with KM12 colon.

Turning to `Nc1c(C(=O)c2cccc(C#CCN3CCCCC3)c2)cnn1-c1ccc(F)cc1`, the GI50 was more than 25 µM in the assay with LOX IMVI melanoma; more than 17.7 µM in the assay with HCT-116 colon; more than 25 µM in the assay on CCRF-CEM leukemia; more than 13.3 µM in the assay on BT-549 breast; more than 25 µM with OVCAR-5 ovarian; 10.3 µM in the assay on HOP-92 NSCLC. For the same compound, the GI50 in the assay on RXF 393 renal is 14 µM; with 786-0 renal, more than 25 µM; with MOLT-4 leukemia, 21.2 µM; in the assay on KM12 colon it was 18.7 µM. Also, the TGI in the assay on LOX IMVI melanoma, with HCT-116 colon, in the assay with CCRF-CEM leukemia, in the assay on BT-549 breast, in the assay on OVCAR-5 ovarian and in the assay on HOP-92 NSCLC was more than 25 µM throughout. Besides, the TGI with RXF 393 renal, in the assay on 786-0 renal, with MOLT-4 leukemia and with KM12 colon was more than 25 µM throughout.

The values are drawn from PubChem BioAssay (NCI).
